Measurements from ChEMBL document CHEMBL4602644, “Synthesis of PJOV56, a new quinoxalinyl-hydrazone derivative able to induce autophagy and apoptosis in colorectal cancer cells, and related compounds” (Bioorg Med Chem Lett, 2020).
The source made the active and inactive calls. No cut-off for these calls is given here.

How the values were obtained:
[1] = test system: HL-60; test: Cytotoxicity against human HL60 cells assessed as cell growth inhibition at 5 ug/ml measured after 72 hrs by MTT assay relative to control; type: functional; details: HL-60, 72 h, read-out: GI
[2] = test system: HCT-116; test: Cytotoxicity against human HCT116 cells assessed as cell growth inhibition at 5 ug/ml measured after 72 hrs by MTT assay relative to control; type: functional; details: HCT-116, 72 h, read-out: GI
[3] = test system: SF-295; test: Cytotoxicity against human SF295 cells assessed as reduction in cell viability measured after 72 hrs by MTT assay; type: functional, cell-based; details: SF-295, 72 h
[4] = test system: HCT-116; test: Cytotoxicity against human HCT116 cells assessed as reduction in cell viability measured after 72 hrs by MTT assay; type: functional, cell-based; details: HCT-116, 72 h
[5] = test system: MCF7; test: Cytotoxicity against human MCF7 cells assessed as reduction in cell viability measured after 72 hrs by MTT assay; type: functional, cell-based; details: MCF7, 72 h
[6] = test system: HepG2; test: Cytotoxicity against human HepG2 cells assessed as reduction in cell viability measured after 72 hrs by MTT assay; type: functional, cell-based; details: HepG2, 72 h
[7] = test system: HCT-116; test: Cytotoxicity against human HCT116 cells assessed as reduction in cell viability measured after 24 hrs by MTT assay; type: functional, cell-based; details: HCT-116, 24 h
[8] = test system: HCT-116; test: Cytotoxicity against human HCT116 cells assessed as reduction in cell viability measured after 48 hrs by MTT assay; type: functional, cell-based; details: HCT-116, 48 h
[9] = test system: HCT-116; test: Induction of morphological changes in human HCT116 cells assessed as increase in cell size at 1.5 to 6 uM measured after 48 hrs by propidium iodide staining based flow cytometry; type: functional
[10] = test system: HCT-116; test: Induction of morphological changes in human HCT116 cells assessed as decrease in number of mitotic cells at 1.5 to 6 uM measured after 48 hrs by propidium iodide staining based flow cytometry; type: functional, cell-based
[11] = test system: HCT-116; test: Induction of morphological changes in human HCT116 cells assessed as increase in number of intracellular vesicles at 1.5 to 6 uM measured after 48 hrs by propidium iodide staining based flow cytometry; type: functional, cell-based
[12] = test system: HCT-116; test: Induction of morphological changes in human HCT116 cells assessed as increase in size of intracellular vesicles at 1.5 to 6 uM measured after 48 hrs by propidium iodide staining based flow cytometry; type: functional, cell-based
[13] = test system: HCT-116; test: Induction of morphological changes in human HCT116 cells assessed as discrete apoptotic cells at 6 uM measured after 48 hrs by propidium iodide staining based flow cytometry; type: functional, cell-based
[14] = test system: HCT-116; test: Induction of autophagy in human HCT116 cells assessed as formation of acidic vesicular organelles at 3 to 6 uM measured after 48 hrs by acridine orange staining based confocal microscopy; type: functional, cell-based
[15] = test system: HCT-116; test: Induction of autophagy in human HCT116 cells increase in Beclin 1 level at 3 uM measured after 48 hrs by Western blot analysis; type: functional, cell-based
[16] = test system: HCT-116; test: Induction of apoptosis in human HCT116 cells assessed as live cells at 1.5 uM measured after 48 hrs by annexinV-PE/7-AAD staining based flow cytometric analysis (reference value: 91.42 %); type: functional
[17] = test system: HCT-116; test: Induction of apoptosis in human HCT116 cells assessed as late apoptotic cells at 1.5 uM measured after 48 hrs by annexinV-PE/7-AAD staining based flow cytometric analysis (reference value: 0.18 %); type: functional
[18] = test system: HCT-116; test: Induction of apoptosis in human HCT116 cells assessed as necrotic cells at 1.5 uM measured after 48 hrs by annexinV-PE/7-AAD staining based flow cytometric analysis (reference value: 0.16 %); type: functional
[19] = test system: HCT-116; test: Induction of apoptosis in human HCT116 cells assessed as early apoptotic cells at 3 uM measured after 48 hrs by annexinV-PE/7-AAD staining based flow cytometric analysis (reference value: 6.53 %); type: functional
[20] = test system: HCT-116; test: Induction of apoptosis in human HCT116 cells assessed as necrotic cells at 3 uM measured after 48 hrs by annexinV-PE/7-AAD staining based flow cytometric analysis (reference value: 0.16 %); type: functional
[21] = test system: HCT-116; test: Induction of apoptosis in human HCT116 cells assessed as live cells at 6 uM measured after 48 hrs by annexinV-PE/7-AAD staining based flow cytometric analysis (reference value: 91.42 %); type: functional
[22] = test system: HCT-116; test: Induction of apoptosis in human HCT116 cells assessed as early apoptotic cells at 6 uM measured after 48 hrs by annexinV-PE/7-AAD staining based flow cytometric analysis (reference value: 6.53 %); type: functional
[23] = test system: HCT-116; test: Induction of apoptosis in human HCT116 cells assessed as late apoptotic cells at 6 uM measured after 48 hrs by annexinV-PE/7-AAD staining based flow cytometric analysis (reference value: 0.18 %); type: functional
[24] = test system: HCT-116; test: Induction of apoptosis in human HCT116 cells assessed as necrotic cells at 6 uM measured after 48 hrs by annexinV-PE/7-AAD staining based flow cytometric analysis (reference value: 0.16 %); type: functional
[25] = test system: HCT-116; test: Induction of apoptosis in human HCT116 cells assessed as increase in caspase 7 expression at 3 to 6 uM measured after 48 hrs by Western blot analysis; type: functional, cell-based
[26] = test system: HCT-116; test: Induction of apoptosis in human HCT116 cells assessed as […] in cleaved caspase 7 expression at 3 to 6 uM measured after 48 hrs by Western blot analysis; type: functional, cell-based
[27] = test system: HCT-116; test: Disruption of membrane integrity in human HCT116 cells assessed as decrease in viable cells at 6 uM measured after 48 hrs by propidium iodide staining based flow cytometry relative to control; type: functional
[28] = test system: HCT-116; test: Disruption of membrane integrity in human HCT116 cells at 1.5 to 3 uM measured after 48 hrs by propidium iodide staining based flow cytometry; type: functional, cell-based
[29] = test system: HCT-116; test: Induction of apoptosis in human HCT116 cells assessed as late apoptotic cells at 6 uM measured after 48 hrs by annexin-V staining based flow cytometry (reference value: 0.34 %); type: functional
[30] = test system: HCT-116; test: Cell cycle arrest in human HCT116 cells assessed as accumulation at S phase at 1.5 uM measured after 48 hrs by propidium iodide staining based flow cytometry (reference value: 33.29 %); type: functional
[31] = test system: HCT-116; test: Cell cycle arrest in human HCT116 cells assessed as accumulation at G2/M phase at 1.5 uM measured after 48 hrs by propidium iodide staining based flow cytometry (reference value: 24.98 %); type: functional
[32] = test system: HCT-116; test: Cell cycle arrest in human HCT116 cells assessed as accumulation at G0/G1 phase at 3 uM measured after 48 hrs by propidium iodide staining based flow cytometry (reference value: 41.67 %); type: functional
[33] = test system: HCT-116; test: Cell cycle arrest in human HCT116 cells assessed as accumulation at S phase at 3 uM measured after 48 hrs by propidium iodide staining based flow cytometry (reference value: 33.29 %); type: functional
[34] = test system: HCT-116; test: Cell cycle arrest in human HCT116 cells assessed as accumulation at G0/G1 phase at 6 uM measured after 48 hrs by propidium iodide staining based flow cytometry (reference value: 41.67 %); type: functional
[35] = test system: HCT-116; test: Cell cycle arrest in human HCT116 cells assessed as accumulation at S phase at 6 uM measured after 48 hrs by propidium iodide staining based flow cytometry (reference value: 33.29 %); type: functional
[36] = test system: HCT-116; test: Cell cycle arrest in human HCT116 cells assessed as accumulation at G2/M phase at 6 uM measured after 48 hrs by propidium iodide staining based flow cytometry (reference value: 24.98 %); type: functional

C(=N\Nc1cnc2ccccc2n1)/c1ccccn1
inhibition of growth at 5 µg/mL [1]: 94.8%
inhibition of growth at 5 µg/mL [2]: 80.4%
IC50 [3]: 3.88 µM
IC50 [4]: 1.83 µM
IC50 [5]: 7 µM
IC50 [6]: 7.35 µM
IC50 [7]: > 20 µM
IC50 [8]: 3.04 µM
Activity [9]: Active
Activity [10]: Active
Activity [11]: Active
Activity [12]: Active
Activity [13]: Active
Activity [14]: Active
Activity [15]: Active
Activity [16]: 89.63%
Activity [17]: 1.14%
Activity [18]: 0.63%
Activity [19]: 5.18%
Activity [20]: 0.87%
Activity [21]: 66.2%
Activity [22]: 8.28%
Activity [23]: 17.9%
Activity [24]: 7.49%
Activity [25]: Active
Activity [26]: Active
Activity [27]: 68.31%
Activity [28]: inactive
Activity [29]: 25.6%
Activity [30]: 34.31%
Activity [31]: 29.99%
Activity [32]: 14.45%
Activity [33]: 55.35%
Activity [34]: 64.85%
Activity [35]: 29.41%
Activity [36]: 5.8%
